Laboratory results: PubChem BioAssay AID256 (DTP/NCI, 2004)
Values joined by “and” are separate entries in the source; they are usually repeats but may differ in a detail not shown here. Equal entries are not always repeated. Inconclusive results and toxic doses are left out. Rule for the calls: active = survival T/C of 150% or more; inactive = T/C below 125% in these data.

Test system: CD2F1 mice, L1210 leukemia ip, survival T/C
Assay: NCI In Vivo Anticancer Drug Screen. Data for tumor model L1210 Leukemia (intraperitoneal) in CD2F1 (CDF1) mice
Conditions: higher = longer survival
Method in brief: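 Each value reflects a quotient of treated over vehicle control outcomes in mice with a transplanted tumor.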

[1] = endpoint: mean survival time, dose: 100.0 mg/kg/injection, schedule: Q04DX002 (ip), vehicle: saline with Tween-80
[2] = endpoint: mean survival time, dose: 100.0 mg/kg/injection, schedule: Q01DX001 (ip), vehicle: saline with Tween-80
[3] = endpoint: mean survival time, dose: 200.0 mg/kg/injection, schedule: Q01DX001 (ip), vehicle: saline with Tween-80
[4] = endpoint: mean survival time, dose: 400.0 mg/kg/injection, schedule: Q01DX001 (ip), vehicle: saline with Tween-80
[5] = endpoint: mean survival time, dose: 75.0 mg/kg/injection, schedule: Q01DX001 (ip), vehicle: saline
[6] = endpoint: mean survival time, dose: 100.0 mg/kg/injection, schedule: Q04DX003 (ip), vehicle: saline
[7] = endpoint: mean survival time, dose: 100.0 mg/kg/injection, schedule: Q01DX009 (ip), vehicle: saline with Tween-80
[8] = endpoint: mean survival time, dose: 200.0 mg/kg/injection, schedule: Q01DX009 (ip), vehicle: saline with Tween-80
[9] = endpoint: mean survival time, dose: 400.0 mg/kg/injection, schedule: Q01DX009 (ip), vehicle: saline with Tween-80
[10] = endpoint: mean survival time, dose: 12.5 mg/kg/injection, schedule: Q04DX002 (ip), vehicle: saline with Tween-80
[11] = endpoint: mean survival time, dose: 25.0 mg/kg/injection, schedule: Q04DX002 (ip), vehicle: saline with Tween-80
[12] = endpoint: mean survival time, dose: 12.5 mg/kg/injection, schedule: Q01DX009 (ip), vehicle: saline with Tween-80
[13] = endpoint: mean survival time, dose: 25.0 mg/kg/injection, schedule: Q01DX009 (ip), vehicle: saline with Tween-80
[14] = endpoint: mean survival time, dose: 50.0 mg/kg/injection, schedule: Q01DX009 (ip), vehicle: saline with Tween-80

Measured: T/C

CCN(CC)CCC(O)c1ccc2c3ccccc3n(C)c2c1 (configuration not stated)
inactive: [1] 109 % of control

CSc1nc(NC2OC(CO)C(O)C(O)C2O)c(I)c(=O)[nH]1 (configuration not stated)
inactive: endpoint: median survival time, dose: 12.5 mg/kg/injection, schedule: Q01DX005 (ip), vehicle: saline with Tween-80 100 % of control | endpoint: median survival time, dose: 25.0 mg/kg/injection, schedule: Q01DX005 (ip), vehicle: saline with Tween-80 98 % of control | endpoint: median survival time, dose: 50.0 mg/kg/injection, schedule: Q01DX005 (ip), vehicle: saline with Tween-80 100 % of control | endpoint: median survival time, dose: 100.0 mg/kg/injection, schedule: Q01DX005 (ip), vehicle: saline with Tween-80 100 % of control | endpoint: median survival time, dose: 200.0 mg/kg/injection, schedule: Q01DX005 (ip), vehicle: saline with Tween-80 102 % of control

O=C(COc1ccc(Cl)cc1C(=O)O)NCc1ccc(NC(=O)Nc2ccc(S(=O)(=O)F)cc2)cc1
inactive: [2] 96 % of control | [3] 91 % of control | [4] 91 % of control

CCC(C)(C)OC(=O)Nc1ccc(C)c(NC(=O)OC(C)(C)CC)c1
inactive: endpoint: mean survival time, dose: 75.0 mg/kg/injection, schedule: Q01DX001 (ip), vehicle: other 86 % of control | endpoint: mean survival time, dose: 150.0 mg/kg/injection, schedule: Q01DX001 (ip), vehicle: other 86 % of control | endpoint: mean survival time, dose: 300.0 mg/kg/injection, schedule: Q01DX001 (ip), vehicle: other 90 % of control

NCCCCOc1ccc([N+](=O)[O-])cc1Cl
inactive: [5] 100 % of control | endpoint: mean survival time, dose: 150.0 mg/kg/injection, schedule: Q01DX001 (ip), vehicle: saline 102 % of control

Nc1nc2c(ncn2-c2ccc(OCCCNC(=O)c3cccc(S(=O)(=O)F)c3)cc2)c(=O)[nH]1
inactive: endpoint: mean survival time, dose: 75.0 mg/kg/injection, schedule: Q01DX001 (ip), vehicle: saline with Tween-80 92 % of control | endpoint: mean survival time, dose: 150.0 mg/kg/injection, schedule: Q01DX001 (ip), vehicle: saline with Tween-80 103 % of control | endpoint: mean survival time, dose: 300.0 mg/kg/injection, schedule: Q01DX001 (ip), vehicle: saline with Tween-80 101 % of control

Nc1c2ccccc2c[n+]2ccccc12
inactive: endpoint: mean survival time, dose: 12.5 mg/kg/injection, schedule: Q04DX003 (ip), vehicle: saline 112 % of control | endpoint: mean survival time, dose: 25.0 mg/kg/injection, schedule: Q04DX003 (ip), vehicle: saline 124 % of control | endpoint: mean survival time, dose: 50.0 mg/kg/injection, schedule: Q04DX003 (ip), vehicle: saline 114 % of control | [6] 121 % of control

O=[N+]([O-])c1ccccc1NC(Nc1ccccc1[N+](=O)[O-])C(Cl)(Cl)Cl
inactive: [7] 98 % of control | [8] 101 % of control | [9] 101 % of control

Nc1[nH]c(=S)[nH]c(=O)c1N
inactive: endpoint: mean survival time, dose: 6.25 mg/kg/injection, schedule: Q04DX002 (ip), vehicle: saline with Tween-80 102 % of control | [10] 102 % of control | [11] 102 % of control

CCCCCCCCCCCCSC1=C(Cl)C(=O)C(OC)=C(OC)C1=O
inactive: endpoint: mean survival time, dose: 6.25 mg/kg/injection, schedule: Q01DX009 (ip), vehicle: saline with Tween-80 91 % of control | [12] 94 % of control | [13] 95 % of control | [14] 93 % of control

CN(CCCCl)CCCCl
inactive: [5] 103 % of control

O=S(=O)(Nc1ccc(NS(=O)(=O)c2ccccc2)c(N2CCOCC2)c1)c1ccccc1
inactive: [2] 101 % of control | [3] 101 % of control | [4] 92 % of control

N#CC(=C1C=CC(=NO)C=C1)c1ccccc1
inactive: [14] 93 % of control | [7] 100 % of control | endpoint: mean survival time, dose: 100.0 mg/kg/injection, schedule: Q04DX003 (ip), vehicle: saline with Tween-80 97 % of control | [8] 100 % of control | endpoint: mean survival time, dose: 200.0 mg/kg/injection, schedule: Q04DX003 (ip), vehicle: saline with Tween-80 96 % of control

CN(C)c1nc(-c2ccncc2)nc(N2CCOCC2)n1
inactive: [1] 92 % of control

CC1CC(C)SC(C(C)(C)C)S1 (configuration not stated)
inactive: endpoint: mean survival time, dose: 12.5 mg/kg/injection, schedule: Q04DX002 (ip), vehicle: saline 105 % of control | endpoint: mean survival time, dose: 25.0 mg/kg/injection, schedule: Q04DX002 (ip), vehicle: saline 97 % of control | endpoint: mean survival time, dose: 50.0 mg/kg/injection, schedule: Q04DX002 (ip), vehicle: saline 102 % of control

CN(C)N=Nc1ccc(S(N)(=O)=O)cc1C(N)=O
inactive: endpoint: mean survival time, dose: 18.8 mg/kg/injection, schedule: Q01DX009 (ip), vehicle: Klucel (hydroxypropylcellulose) (HPC) 96 % of control and 106 % of control | endpoint: mean survival time, dose: 37.5 mg/kg/injection, schedule: Q01DX009 (ip), vehicle: Klucel (hydroxypropylcellulose) (HPC) 98 % of control and 110 % of control | endpoint: mean survival time, dose: 75.0 mg/kg/injection, schedule: Q01DX009 (ip), vehicle: Klucel (hydroxypropylcellulose) (HPC) 120 % of control | endpoint: mean survival time, dose: 300.0 mg/kg/injection, schedule: Q01DX009 (ip), vehicle: Klucel (hydroxypropylcellulose) (HPC) 117 % of control and 111 % of control

c1ccc2c(c1)[nH]c1c3[n+](ccc12)CCCC3
inactive: endpoint: mean survival time, dose: 100.0 mg/kg/injection, schedule: Q01DX001 (ip), vehicle: saline 119 % of control

CC(=O)Nc1cccc(N)c1
inactive: [6] 102 % of control

N/N=C(/C(=O)c1ccccc1)c1ccccc1
inactive: [7] 95 % of control | [8] 97 % of control | [9] 95 % of control

CCOC(=O)c1c2c3c(c(Br)ccc3n(C)c1=O)C(=O)c1ccccc1-2
inactive: [12] 98 % of control | [13] 96 % of control | [14] 98 % of control

[Cl][Hg][c]1ccc2ccccc2c1
inactive: [10] 90 % of control | [11] 102 % of control | endpoint: mean survival time, dose: 50.0 mg/kg/injection, schedule: Q04DX002 (ip), vehicle: saline with Tween-80 111 % of control

NC(CCC(=O)Nc1cccc2ccccc12)C(=O)O (configuration not stated)
inactive: [14] 98 % of control | [7] 107 % of control | [8] 104 % of control

CC(=O)CC(=O)c1ccccc1.CC(=O)CC(=O)c1ccccc1.[Pd]
inactive: endpoint: mean survival time, dose: 3.13 mg/kg/injection, schedule: Q04DX003 (ip), vehicle: distilled water + Tween-80 98 % of control | endpoint: mean survival time, dose: 6.25 mg/kg/injection, schedule: Q04DX003 (ip), vehicle: distilled water + Tween-80 89 % of control | endpoint: mean survival time, dose: 12.5 mg/kg/injection, schedule: Q04DX003 (ip), vehicle: distilled water + Tween-80 100 % of control | endpoint: mean survival time, dose: 25.0 mg/kg/injection, schedule: Q04DX003 (ip), vehicle: distilled water + Tween-80 86 % of control | endpoint: mean survival time, dose: 50.0 mg/kg/injection, schedule: Q04DX003 (ip), vehicle: distilled water + Tween-80 87 % of control | endpoint: mean survival time, dose: 100.0 mg/kg/injection, schedule: Q04DX003 (ip), vehicle: distilled water + Tween-80 89 % of control | endpoint: mean survival time, dose: 200.0 mg/kg/injection, schedule: Q04DX003 (ip), vehicle: distilled water + Tween-80 93 % of control

NC(=O)NOCc1ccc([N+](=O)[O-])cc1
inactive: endpoint: mean survival time, dose: 100.0 mg/kg/injection, schedule: Q01DX009 (ip), vehicle: saline 97 % of control | endpoint: mean survival time, dose: 200.0 mg/kg/injection, schedule: Q01DX009 (ip), vehicle: saline 96 % of control | endpoint: mean survival time, dose: 400.0 mg/kg/injection, schedule: Q01DX009 (ip), vehicle: saline 95 % of control

O=C(O)CCCSc1nn(C2OC(CO)C(O)C2O)c(=O)[nH]c1=O (configuration not stated)
inactive: endpoint: mean survival time, dose: 12.5 mg/kg/injection, schedule: Q01DX005 (ip), vehicle: water 104 % of control | endpoint: mean survival time, dose: 25.0 mg/kg/injection, schedule: Q01DX005 (ip), vehicle: water 104 % of control | endpoint: mean survival time, dose: 50.0 mg/kg/injection, schedule: Q01DX005 (ip), vehicle: water 104 % of control | endpoint: mean survival time, dose: 100.0 mg/kg/injection, schedule: Q01DX005 (ip), vehicle: water 101 % of control | endpoint: mean survival time, dose: 200.0 mg/kg/injection, schedule: Q01DX005 (ip), vehicle: water 101 % of control
